{"source": "paper PMC5722318", "about": "“Absence of anti-hypocretin receptor 2 autoantibodies in post pandemrix narcolepsy cases” (PLoS ONE, 2017)", "system": "DQ0602", "format": "binding, human", "details": "for % Read #1 / Read #1: replicate 1; for % Average: mean of two reads; for % Read #2 / Read #2: replicate 2; for Average: mean of the two raw reads; for Read #1 / Read #2: raw signal read", "key": {"[1]": {"details": "% of Bio-EBV binding, first assay (02/04/2016, 07/15/2016 or 08/11/2016, by peptide)"}, "[2]": {"details": "% of Bio-EBV binding, repeat assay (07/19/2016, 07/18/2016 or 08/12/2016, by peptide)"}, "[3]": {"details": "first assay (02/04/2016, 07/15/2016 or 08/11/2016, by peptide)"}, "[4]": {"details": "repeat assay (07/19/2016, 07/18/2016 or 08/12/2016, by peptide)"}}, "note": "Read-outs that look alike come from different tables or passages of the source."}
{"sequence": "HDSNKGVTAACPH [HA143-155 146N, synthetic 13-mer hemagglutinin peptide containing wild-type 146N]", "values": [{"measurement": "Average (two assays)", "value": 43.7826, "unit": "%"}, {"measurement": "mean of Bio-EBV epitope binding ± SD", "setting": "40 μM competitor peptide, 25 nM DQ0602, 100 nM HLA-DM, 1 μM Bio-EBV, acetate pH 4.6, 3 days at 37°C, duplicate, Eu-streptavidin TRF, lower percentage = stronger competitor", "value": "43.78% ± 1.34%"}, {"measurement": "% Read #1", "setting": "% of Bio-EBV binding (Bio-EBV average = 100), first assay (02/04/2016, 07/15/2016 or 08/11/2016, by peptide)", "value": 41.1935, "unit": "%"}, {"measurement": "% Average", "setting": "[1]", "value": 42.8329, "unit": "%"}, {"measurement": "% Average", "setting": "[2]", "value": 44.7324, "unit": "%"}, {"measurement": "% Read #1", "setting": "[2]", "value": 43.7047, "unit": "%"}, {"measurement": "% Read #2", "setting": "[1]", "value": 44.4722, "unit": "%"}, {"measurement": "% Read #2", "setting": "[2]", "value": 45.7602, "unit": "%"}, {"measurement": "Average", "setting": "[3]", "value": 8060.5}, {"measurement": "Average", "setting": "[4]", "value": 7464.5}, {"measurement": "Read #1", "setting": "first assay (02/04/2016, 07/15/2016 or 08/11/2016, by peptide), competition against Bio-EBV epitope", "value": 7752}, {"measurement": "Read #1", "setting": "[4]", "value": 7293}, {"measurement": "Read #2", "setting": "[3]", "value": 8369}, {"measurement": "Read #2", "setting": "[4]", "value": 7636}]}
{"sequence": "YDDEEFLRYLWR [HCRTR2_34-45]", "values": [{"measurement": "binding to DQ0602 (in words)", "setting": "competition with Bio-EBV epitope, 40 μM peptide, […]", "value": "did not appear to bind to DQ0602"}]}
